The values that follow come from the supplement of paper PMC10307832.

Common to all, as to assay: relative viability (nuclei count vs DMSO), 5 days (fraction); higher = more cells survive
Compound in the test “BI-2536 + Alpelisib”: CC[C@@H]1C(=O)N(C)c2cnc(Nc3ccc(C(=O)NC4CCN(C)CC4)cc3OC)nc2N1C1CCCC1 [BI-2536] + Cc1nc(NC(=O)N2CCC[C@H]2C(N)=O)sc1-c1ccnc(C(C)(C)C(F)(F)F)c1 [Alpelisib] (partner 2 µM)
The method in brief:
(§1)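 One day after seeding in 1536-well plates, lung cancer cell lines were dosed by pin tool. Dosing was either single-drug or a fixed anchor-drug dose plus five library-drug doses (not always all listed) in √10 steps. After 5 days, nuclei were stained in one fix-and-stain step and counted on 4× images, and relative viability is the nuclei count of treated wells over that of vehicle wells, given as the median of duplicate plates.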

Compound in test [1]: CC1CC(=O)N(C2=CN=C(N=C2N1C3CCCC3)NC4=C(C=C(C=C4)C(=O)NC5CCN(CC5)C)OC)C [NPK76-II-72-1] + Cc1cc(Nc2cc(N3CCN(C)CC3)nc(Sc3ccc(NC(=O)C4CC4)cc3)n2)n[nH]1 [Tozasertib] (partner 0.1 µM)
The method in brief:
as §1

Compound in the test “NPK76-II-72-1 + OSI-027”: CC1CC(=O)N(C2=CN=C(N=C2N1C3CCCC3)NC4=C(C=C(C=C4)C(=O)NC5CCN(CC5)C)OC)C [NPK76-II-72-1] + COc1cccc2cc(-c3nc([C@H]4CC[C@H](C(=O)O)CC4)n4ncnc(N)c34)[nH]c12 [OSI-027] (partner 0.5 µM)
The essentials:
as §1

Compound in the test “NPK76-II-72-1 + AZD7762”: CC1CC(=O)N(C2=CN=C(N=C2N1C3CCCC3)NC4=C(C=C(C=C4)C(=O)NC5CCN(CC5)C)OC)C [NPK76-II-72-1] + NC(=O)Nc1cc(-c2cccc(F)c2)sc1C(=O)N[C@H]1CCCNC1 [AZD7762] (partner 0.2 µM)
The essentials: as §1

With NCI-H2405, the relative viability with BI-2536 + Alpelisib (first compound 0.01 µM) was found to be 0.665; in the test with BI-2536 + Alpelisib (first compound 0.03162 µM), 0.408; with BI-2536 + Alpelisib (first compound 0.1 µM), 0.374; in the test with BI-2536 + Alpelisib (first compound 0.3162 µM), 0.132; with BI-2536 + Alpelisib (first compound 1 µM) it was 0.365; in test [1] (first compound 0.01 µM) it was 0.723. Further, the relative viability was 0.871 in test [1] (first compound 0.03162 µM); 0.762 in test [1] (first compound 0.1 µM); 0.743 in test [1] (first compound 0.3162 µM); 0.816 in test [1] (first compound 1 µM); 0.64 with NPK76-II-72-1 + OSI-027 (first compound 0.01 µM); 0.672 with NPK76-II-72-1 + OSI-027 (first compound 0.03162 µM). The relative viability in the test with NPK76-II-72-1 + OSI-027 (first compound 0.1 µM) was 0.633; with NPK76-II-72-1 + OSI-027 (first compound 0.3162 µM), 0.627; with NPK76-II-72-1 + OSI-027 (first compound 1 µM), 0.67; in the test with NPK76-II-72-1 + AZD7762 (first compound 0.01 µM), 0.689; in the test with NPK76-II-72-1 + AZD7762 (first compound 0.03162 µM), 0.775; with NPK76-II-72-1 + AZD7762 (first compound 0.1 µM), 0.728. For the same cell line, the relative viability amounted to 0.746 in the test with NPK76-II-72-1 + AZD7762 (first compound 0.3162 µM) and 0.705 with NPK76-II-72-1 + AZD7762 (first compound 1 µM).
On to NCI-H322M, for which the relative viability with BI-2536 + Alpelisib (first compound 0.01 µM) is 0.912; with BI-2536 + Alpelisib (first compound 0.03162 µM), 0.881; in the test with BI-2536 + Alpelisib (first compound 0.1 µM), 0.811; with BI-2536 + Alpelisib (first compound 0.3162 µM), 0.618; with BI-2536 + Alpelisib (first compound 1 µM), 0.269; in test [1] (first compound 0.01 µM), 0.486. Further, the relative viability in test [1] (first compound 0.03162 µM) is 0.509; in test [1] (first compound 0.1 µM), 0.496; in test [1] (first compound 0.3162 µM), 0.44; in test [1] (first compound 1 µM), 0.534; in the test with NPK76-II-72-1 + OSI-027 (first compound 0.01 µM), 0.558; in the test with NPK76-II-72-1 + OSI-027 (first compound 0.03162 µM), 0.593. For the same cell line, the relative viability came out at 0.534 with NPK76-II-72-1 + OSI-027 (first compound 0.1 µM); 0.56 with NPK76-II-72-1 + OSI-027 (first compound 0.3162 µM); 0.672 in the test with NPK76-II-72-1 + OSI-027 (first compound 1 µM); 0.532 in the test with NPK76-II-72-1 + AZD7762 (first compound 0.01 µM); 0.504 in the test with NPK76-II-72-1 + AZD7762 (first compound 0.03162 µM); 0.52 with NPK76-II-72-1 + AZD7762 (first compound 0.1 µM). For the same cell line, the figures for the relative viability with NPK76-II-72-1 + AZD7762 (first compound 0.3162 µM) and in the test with NPK76-II-72-1 + AZD7762 (first compound 1 µM) were 0.655 and 0.52, respectively.
Turning to NCI-H2170, the relative viability came to 0.767 in the test with BI-2536 + Alpelisib (first compound 0.01 µM); 0.871 in the test with BI-2536 + Alpelisib (first compound 0.03162 µM); 0.402 with BI-2536 + Alpelisib (first compound 0.1 µM); 0.195 with BI-2536 + Alpelisib (first compound 0.3162 µM); 0.223 in the test with BI-2536 + Alpelisib (first compound 1 µM); 0.688 in test [1] (first compound 0.01 µM). The relative viability in test [1] (first compound 0.03162 µM) stood at 0.708; in test [1] (first compound 0.1 µM) it was 0.69; in test [1] (first compound 0.3162 µM), 0.527; in test [1] (first compound 1 µM) it was 0.812; with NPK76-II-72-1 + OSI-027 (first compound 0.01 µM), 0.73; with NPK76-II-72-1 + OSI-027 (first compound 0.03162 µM) it was 0.759. Besides, the relative viability with NPK76-II-72-1 + OSI-027 (first compound 0.1 µM) is 0.716; with NPK76-II-72-1 + OSI-027 (first compound 0.3162 µM), 0.493; with NPK76-II-72-1 + OSI-027 (first compound 1 µM), 0.798; in the test with NPK76-II-72-1 + AZD7762 (first compound 0.01 µM) it was 0.799; with NPK76-II-72-1 + AZD7762 (first compound 0.03162 µM), 0.891; with NPK76-II-72-1 + AZD7762 (first compound 0.1 µM), 0.892. In addition, the values for the relative viability in the test with NPK76-II-72-1 + AZD7762 (first compound 0.3162 µM) and with NPK76-II-72-1 + AZD7762 (first compound 1 µM) were 0.358 and 0.975, respectively.
As for NCI-H1395, the relative viability came to 0.958 with BI-2536 + Alpelisib (first compound 0.01 µM); 0.502 in the test with BI-2536 + Alpelisib (first compound 0.03162 µM); 0.43 with BI-2536 + Alpelisib (first compound 0.1 µM); 0.499 with BI-2536 + Alpelisib (first compound 0.3162 µM); 0.369 with BI-2536 + Alpelisib (first compound 1 µM); 0.726 in test [1] (first compound 0.01 µM). Moreover, the relative viability in test [1] (first compound 0.03162 µM) was 0.822; in test [1] (first compound 0.1 µM), 0.72; in test [1] (first compound 0.3162 µM), 0.767; in test [1] (first compound 1 µM), 0.759; with NPK76-II-72-1 + OSI-027 (first compound 0.01 µM) it was 0.633; with NPK76-II-72-1 + OSI-027 (first compound 0.03162 µM), 0.617. The relative viability came to 0.677 in the test with NPK76-II-72-1 + OSI-027 (first compound 0.1 µM); 0.62 with NPK76-II-72-1 + OSI-027 (first compound 0.3162 µM); 0.695 with NPK76-II-72-1 + OSI-027 (first compound 1 µM); 0.388 in the test with NPK76-II-72-1 + AZD7762 (first compound 0.01 µM); 0.341 with NPK76-II-72-1 + AZD7762 (first compound 0.03162 µM); 0.4 in the test with NPK76-II-72-1 + AZD7762 (first compound 0.1 µM). Moreover, the relative viability came to 0.396 with NPK76-II-72-1 + AZD7762 (first compound 0.3162 µM) and 0.387 with NPK76-II-72-1 + AZD7762 (first compound 1 µM).
In the case of NCI-H358, the relative viability with BI-2536 + Alpelisib (first compound 0.01 µM) stood at 0.995; in the test with BI-2536 + Alpelisib (first compound 0.03162 µM) it was 0.537; with BI-2536 + Alpelisib (first compound 0.1 µM), 0.154; with BI-2536 + Alpelisib (first compound 0.3162 µM), 0.158; with BI-2536 + Alpelisib (first compound 1 µM), 0.159; in test [1] (first compound 0.01 µM), 0.108. Further, the relative viability in test [1] (first compound 0.03162 µM) was 0.11; in test [1] (first compound 0.1 µM), 0.0907; in test [1] (first compound 1 µM), 0.115; with NPK76-II-72-1 + OSI-027 (first compound 0.01 µM), 0.703; with NPK76-II-72-1 + OSI-027 (first compound 0.03162 µM), 0.812; in the test with NPK76-II-72-1 + OSI-027 (first compound 0.1 µM) it was 1. Besides, the relative viability in the test with NPK76-II-72-1 + OSI-027 (first compound 1 µM) worked out at 0.916; with NPK76-II-72-1 + AZD7762 (first compound 0.01 µM), 0.521; with NPK76-II-72-1 + AZD7762 (first compound 0.03162 µM), 0.525; in the test with NPK76-II-72-1 + AZD7762 (first compound 0.1 µM), 0.611; with NPK76-II-72-1 + AZD7762 (first compound 1 µM), 0.683.
NCI-H838: the relative viability in the test with BI-2536 + Alpelisib (first compound 0.01 µM) was found to be 0.967; with BI-2536 + Alpelisib (first compound 0.03162 µM), 1; in the test with BI-2536 + Alpelisib (first compound 0.1 µM), 0.661; in the test with BI-2536 + Alpelisib (first compound 0.3162 µM), 0.124; with BI-2536 + Alpelisib (first compound 1 µM) it was 0.144; in test [1] (first compound 0.01 µM), 0.27. The relative viability in test [1] (first compound 0.03162 µM) stood at 0.248; in test [1] (first compound 0.1 µM), 0.278; in test [1] (first compound 0.3162 µM), 0.274; in test [1] (first compound 1 µM), 0.288; in the test with NPK76-II-72-1 + OSI-027 (first compound 0.01 µM) it was 0.323; with NPK76-II-72-1 + OSI-027 (first compound 0.03162 µM), 0.363. Moreover, the relative viability with NPK76-II-72-1 + OSI-027 (first compound 0.1 µM) was 0.385; with NPK76-II-72-1 + OSI-027 (first compound 0.3162 µM), 0.395; with NPK76-II-72-1 + OSI-027 (first compound 1 µM) it was 0.442; in the test with NPK76-II-72-1 + AZD7762 (first compound 0.01 µM) it was 0.826; in the test with NPK76-II-72-1 + AZD7762 (first compound 0.03162 µM), 0.961; in the test with NPK76-II-72-1 + AZD7762 (first compound 0.1 µM), 0.947. Further, the results for the relative viability in the test with NPK76-II-72-1 + AZD7762 (first compound 0.3162 µM) and with NPK76-II-72-1 + AZD7762 (first compound 1 µM) were 0.912 and 0.976, respectively.
CAL-12T: the relative viability with BI-2536 + Alpelisib (first compound 0.01 µM) amounted to 1.13; in the test with BI-2536 + Alpelisib (first compound 0.03162 µM), 1.07; with BI-2536 + Alpelisib (first compound 0.1 µM) it was 1.08; in the test with BI-2536 + Alpelisib (first compound 0.3162 µM), 0.173; with BI-2536 + Alpelisib (first compound 1 µM) it was 0.141; in test [1] (first compound 0.01 µM) it was 0.33. In addition, the relative viability amounted to 0.324 in test [1] (first compound 0.03162 µM); 0.314 in test [1] (first compound 0.1 µM); 0.25 in test [1] (first compound 0.3162 µM); 0.363 in test [1] (first compound 1 µM); 0.626 in the test with NPK76-II-72-1 + OSI-027 (first compound 0.01 µM); 0.787 in the test with NPK76-II-72-1 + OSI-027 (first compound 0.03162 µM). Also, the relative viability stood at 0.601 with NPK76-II-72-1 + OSI-027 (first compound 0.1 µM); 0.683 with NPK76-II-72-1 + OSI-027 (first compound 0.3162 µM); 0.823 with NPK76-II-72-1 + OSI-027 (first compound 1 µM); 0.65 with NPK76-II-72-1 + AZD7762 (first compound 0.01 µM); 0.718 with NPK76-II-72-1 + AZD7762 (first compound 0.03162 µM); 0.506 in the test with NPK76-II-72-1 + AZD7762 (first compound 0.1 µM). Further, the relative viability with NPK76-II-72-1 + AZD7762 (first compound 0.3162 µM) came out at 0.645; with NPK76-II-72-1 + AZD7762 (first compound 1 µM) it was 0.724.
